Laboratory results taken from the SangsterLogP compilation.

With `CCOCCOCCOCC` the logP was 0.39. Work on `COCCOC` yielded a logP of -0.21. `CCCCOCCOCCOCCCC` gave a logP of 1.92. Work on `COCCOCCOC` yielded a logP of -0.36. For `CCOCCOCCO`, the logP was -0.54. `CCCCOCCO` showed a logP of 0.76. In the case of `CCCCOCCOCCO`, the logP is reported as 0.56. Work on `CCCCOCCCC` yielded a logP of 3.21. Molecule `CCCOC(=O)CCC(=O)OCCC` has a logP of 2.16. `CCOCCOCC` gave a logP of 0.66. With `CCCCOCCOCCCC` the logP was 2.48. For `CCCCCCOCCO`, the logP was 1.86. With `CCOC(=O)CCC(=O)OCC` the logP was 1.19. `CCCCCCOCCOCCO` gave a logP of 1.7. With `COC(=O)CCC(=O)OC` the logP was 0.19.
